# According to patent publication EP3187180A1, “ADENOSYLHOMOCYSTEINASE BINDING SUBSTANCES FOR MEDICAL USE” (Ludwig-Maximilians-Universität München, priority 2015, dated 2017):
# Where a chain is given by its changes, count along the chain named. Like-named read-outs stand apart in the source and are kept apart here.
# Assays:
# [1] = biological target: T1, AHCY D86G (Homo sapiens, UniProt P23526, D86G); assay: Differential Scanning Fluorimetry (DSF), thermal unfolding; format: binding; conditions: for TM = Temperature at the midpoint of protein unfolding transition: No NAD^+: 49,55; for ΔTm at 100 µM: read-out: ΔTM (midpoint of thermal unfolding shifted by)
# T1 construct: made in house; host or cells: E. coli DH5a (with or without GroESL co-expression)
# T1 sequence (P23526 1-432 D86G): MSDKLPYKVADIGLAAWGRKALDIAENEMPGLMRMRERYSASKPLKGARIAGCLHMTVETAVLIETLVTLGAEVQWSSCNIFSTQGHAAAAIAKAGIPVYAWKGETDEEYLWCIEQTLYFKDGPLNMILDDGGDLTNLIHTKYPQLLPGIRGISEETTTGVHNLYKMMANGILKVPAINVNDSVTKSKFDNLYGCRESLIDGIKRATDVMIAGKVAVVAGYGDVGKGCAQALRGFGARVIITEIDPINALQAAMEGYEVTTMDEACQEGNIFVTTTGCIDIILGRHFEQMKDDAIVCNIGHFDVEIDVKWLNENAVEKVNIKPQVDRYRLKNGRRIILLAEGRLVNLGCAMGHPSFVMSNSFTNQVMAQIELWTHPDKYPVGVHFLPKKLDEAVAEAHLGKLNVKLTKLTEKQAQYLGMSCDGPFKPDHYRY
# Experimental: (§1) The potential of the binding of NAD^+ or an analogue of NAD^+ to the NAD^+ binding site and of the binding of an analogue of a substrate of AHCY to the substrate binding site of AHCY in stabilizing the enzyme and its activity was analyzed by use of Differential Scanning Fluorimetry (DSF). The following substrates were tested in the given concentrations:
# (§2) The following five mutant proteins were selected for testing: • R49C, D86G, Y143C, A89V and Y379C.
# (§3) Fluorescence measurements were carried out on a 7900 HT fast real-time PCR System (Applied Biosystems, Thermo Fisher Scientific Inc. USA). The data was recorded in Abi Prism SDS software. Samples contained AHCY-Maltose-Binding Protein fusion proteins, HEPES, and SYPRO Orange fluorescence dye (SYPRO® Orange Protein Gel Stain from Invitrogen, Thermo Fisher Scientific Inc. USA) in a 1:1000 dilution), which binds to exposed hydrophobic sites of unfolded proteins. For this dye, the wavelengths used for excitation and emission are 492 nm, respectively 610 nm. The assay was measured in quadruplicates on a 96-well PCR plate. Thermal denaturation was monitored by following the changes in SYPRO Orange fluorescence emission (excitation at 492 nm, emission at 610 nm). The measurement was performed in a 25 °C to 75 °C range, at a rate of 2 °C/min. Thermal denaturation curves were obtained by the plotting of fluorescence intensities against temperature and TM values as the midpoint of the protein-unfolding transition were calculated using the Boltzmann sigmoidal non-linear regression function in GraphPad Prism (GraphPad Prism 5.0, GraphPad Software Inc. USA). All measurements were corrected for background reduction of SYPRO Orange fluorescence. To analyze the stabilizing effect of different compounds different concentrations of NAD^+, NAD^+ analogues and substrate analogues were added to the samples. Significances between wild-type and mutated apoenzymes and holoenzymes with stabilizing agents were calculated by one-way analysis of variance followed by Dunnett's post test (GraphPad Prism 5.0, GraphPad Software Inc. USA).
# (§4) DSF is an excellent means to monitor global thermal unfolding events by probing the accessibility of the fluorescent dye Sypro Orange to hydrophobic groups within a protein. DSF was used in order to assess whether mutated AHCY proteins can be stabilized by various compounds at increasing temperatures. The stabilizing effect was evaluated by comparison of the unfolding transition midpoints (fraction unfolded = 0.5) as an operative measure of protein stability and by graphical analysis of the thermal denaturation curves. The midpoint of thermal unfolding of wild-type AHCY was shifted by an average of 2.27 °C towards higher temperatures by NAD^+ and NAD^+ analogues.
# [2] = biological target: T2, AHCY R49C (Homo sapiens, UniProt P23526, R49C); assay: as above; format: binding; conditions: for TM = Temperature at the midpoint of protein unfolding transition: No NAD^+: 49,84
# T2 construct: made in house; host or cells: E. coli DH5a (with or without GroESL co-expression)
# T2 sequence (P23526 1-432 R49C): T1 sequence (P23526 1-432 D86G) with R49C, G86D
# Experimental: as §1, §2, §3, §4
# [3] = system: AHCY wild-type and mutated AHCY proteins; assay: Differential Scanning Fluorimetry (DSF), statements over the panel of proteins; format: binding, human; conditions: wild-type and/or mutated AHCY proteins, 1-100 µM or 5-100 µM
# [4] = biological target: T3, wild-type AHCY (Homo sapiens, UniProt P23526); assay: Differential Scanning Fluorimetry (DSF), thermal unfolding; format: binding; conditions: for TM = Temperature at the midpoint of protein unfolding transition: Wt, No NAD^+: 51,98
# T3 construct: made in house; host or cells: E. coli DH5a (with or without GroESL co-expression)
# Experimental: as §1, §3, §4
# [5] = biological target: T4, AHCY A89V (Homo sapiens, UniProt P23526, A89V); assay: as above; format: binding; conditions: for TM = Temperature at the midpoint of protein unfolding transition: No NAD^+: 50,29
# T4 construct: made in house; host or cells: E. coli DH5a (with or without GroESL co-expression)
# T4 sequence (P23526 1-432 A89V): T1 sequence (P23526 1-432 D86G) with G86D, A89V
# Experimental: as §1, §2, §3, §4
# [6] = biological target: T5, AHCY Y143C (Homo sapiens, UniProt P23526, Y143C); assay: as above; format: binding; conditions: No NAD^+: 49,34
# T5 construct: made in house; host or cells: E. coli DH5a (with or without GroESL co-expression)
# T5 sequence (P23526 1-432 Y143C): T1 sequence (P23526 1-432 D86G) with G86D, Y143C
# Experimental: as §1, §2, §3, §4
# [7] = biological target: T6, AHCY Y379C (Homo sapiens, UniProt P23526, Y379C); assay: as above; format: binding; conditions: No NAD^+: 50,01
# T6 construct: made in house; host or cells: E. coli DH5a (with or without GroESL co-expression)
# T6 sequence (P23526 1-432 Y379C): T1 sequence (P23526 1-432 D86G) with G86D, Y379C
# Experimental: as §1, §2, §3, §4
# T3 sequence (P23526 whole entry): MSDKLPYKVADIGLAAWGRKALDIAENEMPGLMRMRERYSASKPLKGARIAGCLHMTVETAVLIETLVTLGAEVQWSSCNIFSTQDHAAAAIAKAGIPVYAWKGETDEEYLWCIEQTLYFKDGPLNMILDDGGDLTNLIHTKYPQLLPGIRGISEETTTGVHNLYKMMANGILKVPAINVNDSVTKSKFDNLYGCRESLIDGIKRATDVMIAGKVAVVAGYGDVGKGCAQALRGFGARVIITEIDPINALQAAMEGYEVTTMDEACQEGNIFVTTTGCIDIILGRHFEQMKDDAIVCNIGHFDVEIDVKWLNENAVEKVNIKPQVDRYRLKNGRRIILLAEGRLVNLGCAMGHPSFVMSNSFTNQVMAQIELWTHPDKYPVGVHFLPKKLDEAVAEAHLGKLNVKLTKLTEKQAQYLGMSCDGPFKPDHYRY
structure (smiles),measurement,setting,value
"Nc1nccc2c1ncn2[C@@H]1C=C(CO)[C@@H](O)[C@H]1O [DZNep, 3-Deazaneplanocin A]",increase in TM (stabilizing the unfolding by),"[1]; D86G, concentration not given",11.18 °C
same,ΔTm at 10 µM,[1]; read-out: ΔTM,13.5 °C
"NC(=O)c1ccc[n+]([C@@H]2O[C@H](COP(=O)([O-])OP(=O)(O)OC[C@H]3O[C@@H](n4cnc5c4ncn4ccnc54)[C@H](O)[C@@H]3O)[C@@H](O)[C@H]2O)c1 [E-NAD^+, nicotinamide 1,N^6-ethenoadenine dinucleotide]",ΔTM (increase in TM),[2]; concentration not given,4.36 °C
same,stabilizing effect on thermal stability (in words),[3],considerable stabilization
"NC(=O)c1ccc[n+]([C@@H]2O[C@H](COP(=O)([O-])OP(=O)(O)OC[C@H]3O[C@@H](n4cnc5c(N)ncnc54)[C@H](O)[C@@H]3O)[C@@H](O)[C@H]2O)c1 [NAD^+, nicotinamide adenine dinucleotide]",ΔTm at 100 µM,"[4]; AHCY wild-type, 100 µM, read-out: stabilized the unfolding transition by (shift of TM)",2.34 °C
same,TM = Temperature at the midpoint of protein unfolding transition,[4]; 5 µM,"52,24"
same,TM = Temperature at the midpoint of protein unfolding transition,[4]; 11 µM,"53,99"
same,TM = Temperature at the midpoint of protein unfolding transition,[4]; 100 µM,"54,32"
same,TM = Temperature at the midpoint of protein unfolding transition,[5]; 5 µM,"51,97"
same,TM = Temperature at the midpoint of protein unfolding transition,[5]; 11 µM,"53,52"
same,TM = Temperature at the midpoint of protein unfolding transition,[5]; 100 µM,"54,59"
same,TM = Temperature at the midpoint of protein unfolding transition,"[1]; D86G, 5 µM","51,88"
same,TM = Temperature at the midpoint of protein unfolding transition,"[1]; D86G, 11 µM","53,51"
same,TM = Temperature at the midpoint of protein unfolding transition,"[1]; D86G, 100 µM","54,02"
same,ΔTm at 100 µM,[1],4.47 °C
same,TM = Temperature at the midpoint of protein unfolding transition,[2]; 5 µM,"51,48"
same,TM = Temperature at the midpoint of protein unfolding transition,[2]; 11 µM,"52,55"
same,TM = Temperature at the midpoint of protein unfolding transition,[2]; 100 µM,"52,75"
same,TM = Temperature at the midpoint of protein unfolding transition,[6]; 5 µM,"50,62"
same,TM = Temperature at the midpoint of protein unfolding transition,[6]; 11 µM,"52,36"
same,TM = Temperature at the midpoint of protein unfolding transition,[6]; 100 µM,"52,17"
same,TM = Temperature at the midpoint of protein unfolding transition,[7]; 5 µM,"51,31"
same,TM = Temperature at the midpoint of protein unfolding transition,[7]; 11 µM,"52,45"
same,TM = Temperature at the midpoint of protein unfolding transition,[7]; 100 µM,"52,48"
same,stabilizing effect on thermal stability (in words),[3],very good effects
"NC(=S)c1ccc[n+]([C@@H]2O[C@H](COP(=O)([O-])OP(=O)(O)OC[C@H]3O[C@@H](n4cnc5c(N)ncnc54)[C@H](O)[C@@H]3O)[C@@H](O)[C@H]2O)c1 [S-NAD^+, thionicotinamide adenine dinucleotide]",ΔTm at 100 µM,"[1]; D86G, 100 µM",6.7 °C
same,stabilizing effect on thermal stability (in words),[3],improved resistance against thermal stress
C=C1CCC[C@H]2[C@](C)(CC3=C(O)C(=O)C=C(OC)C3=O)[C@@H](C)CC[C@]12C [ilimaquinone],shifting the midpoint of thermal unfolding by,[5]; concentration not given,8.9 °C
"NC(=O)c1ncn([C@@H]2O[C@H](CO)[C@@H](O)[C@H]2O)n1 [ribavirin, 1-[(2R,3R,4S,5R)-3,4-dihydroxy-5-(hydroxymethyl)oxolan-2-yl]-1H-1,2,4-triazole-3-carboxamide]",stabilizing effect on thermal stability (in words),[3],good stabilizing effect
